# Laboratory results reported in PMC8885659, “Asymmetric, amphiphilic RGD conjugated phthalocyanine for targeted photodynamic therapy of triple negative breast cancer” (Signal Transduction and Targeted Therapy, 2022).
# Key:
# 4T1 cells [1] = experiment: Cytotoxicity assay (CCK8), phototoxicity and dark toxicity; format: cell-based, murine; details: for Dark toxicity: cell viability without light: no light, CCK8, n = 5
# Description: 4T1 cells were seeded in a 96-well plate at a density of 10,000 cells/well, and each well was cultured overnight with 200 μL of DMEM medium containing 10% FBS. On the second day, the original medium was discarded and replaced with DMEM medium containing different concentrations of SC or RSP (containing 0.05% CEL). After 4 h of incubation, the cells were incubated with fresh medium and irradiated with a xenon lamp. Then 10 μL of CCK8 was added to each well, and the incubation continued for 1 h. After the incubation, the absorbance value at 450 nm was measured with enzyme labels (Synergy HT, BioTek, USA). At the same time, a blank control was set to determine cell viability. The dark toxicity test method was similar, except that no light was applied to the cells.
# 4T1 cells [2] = experiment: Subcellular co-localization with lysosomes (confocal); format: cell-based, murine; details: 1 μM, 4 h incubation, Lysotracker, n = 3
# Description: Subcellular colocalization pictures were taken under a laser confocal microscope (Nikon A1R high-speed confocal laser microscope, Nikon Corporation, Japan). 4T1 cells were cultured in 35 mm cell culture dishes at a density of 20,000 cells/dish, and cultured overnight. After 24 h, the medium was replaced with DMEM medium (containing 0.05% CEL) containing 1 μM RSP or SC. After 4 h of incubation, the plates were washed with PBS and then stained with DMEM medium containing Lysotracker for 30 min and washed again with PBS. Then fixed and counterstained with DAPI. The light was always avoided during the entire operation. The dynamic change of fluorescence on any straight line passing through the whole cell was analyzed by Image J. The result was plot to qualitatively analyze the co-localization situation of lysosome and phthalocyanine. In order to more completely reflect the co-localization of lysosomes and phthalocyanines, the Pearson co-localization coefficient was analyzed on the fluorescence fields of cells obtained from three photographs, and the difference in lysosomal localization of RSP and SC in the cells was quantitatively analyzed.
# [3] = Singlet oxygen yield detection with DPBF; format: physicochemical; details: physiological saline containing 1% CEL; for Slope of DPBF bleaching (singlet oxygen yield): laser 610 nm, 225 mW/cm^2, DPBF absorbance at 414 nm
# From the text: Generation of singlet oxygen was detected chemically using the disodium salt of 1,3-diphenylisobenzofuran (DPBF) as a singlet oxygen sensor. DPBF is bleached by singlet oxygen to its corresponding endoperoxide. The reaction was monitored spectrophotometrically by recording the decrease in optical density at 414 nm. The bleaching rate of DPBF can also be used as a method to compare the yield of singlet oxygen. In the actual measurement of singlet oxygen yield, a certain amount of DPBF ethanol solution and test solution are mixed together in a dark room. A rotor is added to the cuvette, and the laser is irradiated for different times while stirring. The absorption spectra of the mixed solution was tested after different time of irradiation with an ultraviolet spectrophotometer, then the change of the absorption value of DPBF at 414 nm was obtained.
# [4] = Biological safety in the PDT study (body weight, H&E of main organs); format: in vivo, Balb/c mice; details: for Mouse body weight change: all treatment groups with or without light, 2 mg/kg i.v., n = 5
# Description: (§1) PDT treatment was performed on the 7th day when the 4T1 tumor model was established in mice, and the average initial tumor volume was 100 mm^3. The test groups were as follows: Group 1: PBS; Group 2: Light; Group 3: SC; Group 4: RSP; Group 5: SC + Light, Group 6: RSP + Light. First, 200 μl of RSP (2 mg/kg), SC (2 mg/kg), and PBS were injected intravenously. 4 h after the injection, the tumor area was irradiated with 671 nm laser (0.1 W/cm^2) for 6 min with a total laser intensity of 36 J/cm^2 and laser treatment was performed on groups 2, 5, and 6. After PDT treatment, the tumor size was measured every day using electronic vernier calipers until 12 days. The maximum width (X) and length (Y) of the tumor were measured, and the following formula was used to calculate the tumor volume: V = (X^2Y)/2. From the first day of treatment, the weight change of each group of mice was recorded until the end of the treatment. Mice in each group were selected randomly, and excised tumors for pathological analysis. In order to investigate the biological safety of this PDT method, after the treatment, the main organs (heart, liver, spleen, lung, kidney) of each group of differently treated mice were dissected, and H&E section staining was performed to evaluate their Pathological changes.
# 4T1 tumor model = experiment: In vivo photodynamic activity; set-up: species or system Balb/c mice; details: for Tumor volume without light versus PBS and Light groups: no laser
# Description: (§2) Balb/c female mice aged 6 to 8 weeks were purchased from Beijing Weitong Lihua Laboratory Animal Technology. All animal experiments were performed under protocols approved by the Institutional Animal Care and Use Committee (IACUC) of Peking University. In situ breast cancer tumor models were established by injecting 2 * 10^7 4T1-luci tumor cells under the fourth pair of mammary glands in mice. Treatment was initiated approximately 6 days after inoculation when the tumor volume grew to approximately 100 mm^3.
# as §1
# [5] = Photostability under laser irradiation; format: physicochemical; details: 4 mins of laser irradiation, 225 mW/cm^2, UV-vis absorption
# Description: In order to better simulate the situation of photosensitive molecules in practical applications, the singlet oxygen yield of RSP in physiological saline containing 1% CEL was measured (Fig. 2c). The slope of RSP and SC was 0.06481 and 0.07165 respectively (Supplementary Fig. 6). […] We further determined the photostability of RSP. […] The axial modification of RSP helped to improve the stability of the phthalocyanine parent ring when singlet oxygen was generated, so that it was less prone to degrade.
# 4T1 cells [6] = experiment: Apoptosis/necrosis by flow cytometry after TPDT; format: cell-based, murine; details: 500 nM, 4 h incubation, with light
# Description: The apoptosis rate and necrosis rate of the cells were detected on the flow cytometer according to the operating procedure of the apoptosis detection kit. 4T1 cells were seeded in a six-well plate at a density of 5 * 10^5 cells/well overnight. On the second day, the medium was changed to DMEM medium containing 500 nM RSP/SC and 1% CEL, and the cells were incubated for 4 h. Then the medium was replaced with fresh DMEM. The cells were applied light/ no light, and then digested.
# 4T1 tumor = experiment: In vivo fluorescence imaging of tumor targeting; set-up: species or system Balb/c mice
# Description: as §2
# For in vivo fluorescence imaging, RSP or SC dissolved in physiological saline (containing 1% CEL) was injected intravenously at a dose of 2 mg/kg into tumor-bearing mice (both in situ and subcutaneous models). Then IVIS Spectrum In Vivo Imaging System (PerkinElmer) was utilized to collect the fluorescence signals of RSP (660 nm/710 nm) in subcutaneous models at different times after the injection. The small animal fluorescence imaging system was used for in situ tumor-bearing mice imaging, taking pictures, and recording. The excitation wavelength was 660 nm, and the fluorescence signal was collected with a 700 nm filter. Then, the FOBI software was used to process the data to analyze the enrichment of phthalocyanines in the tumors of the mice after different injection times. The mice after 24 h fluorescence imaging were sacrificed, and the hearts, livers, spleens, lungs, kidneys, and tumors were collected for analysis of fluorescence semiquantitative biodistribution.
# [7] = Blood circulation dynamics and organ distribution; format: in vivo, Balb/c mice
# Description: The ideal targeted photosensitizer should be able to quickly accumulate at the tumor site and metabolize from normal organs after injection. […] After 24 h, 48 h, and 120 h of RSP injection, the major organs of the mice were dissected and their fluorescence was quantified.
# In order to investigate the blood clearance rate of RSP, healthy male Balb/c mice were selected as experimental subjects, and blood was collected from the orbit to detect the drug concentration in the body at different time points. Fluorescence labeled Organism Bioimaging Instrument (FOBI, South Korea) was used to measure the relative concentration of phthalocyanine in mouse plasma. Mice were injected with RSP through the tail vein at a dose of 2 mg/kg. At different time intervals, blood samples were collected from the orbits of mice with capillary tubes coated with heparin, placed on ice, and centrifugated to separate blood cells (3000 g, 10 min). The resulting plasma samples were analyzed for phthalocyanine concentration.
# [8] = Solubility and aggregation state (absorption spectra); format: physicochemical
# From the text: Therefore, we dissolved RSP in physiological saline containing 1% CEL, DMEM medium containing 0.05% CEL, and DMF (as a control) to measure its absorption and fluorescence spectrum. […] RSP had the characteristics of not being aggregated in physiological saline and cell culture media, which provides a basis for further investigation of its phototoxicity.
# [9] = subcutaneous tumor model, 2 mg/kg tail vein, n = 3
# [10] = RSP + light (RSPL), tumor sections, n = 3
compound,measurement,setting,value
2[4-(3-carboxypropyl)phenoxy]silicon phthalocyanine [SC],Dark toxicity: cell viability without light,4T1 cells [1],did no significantly decreased
same,Lysosomal colocalization index (Pearson co-localization coefficient),4T1 cells [2],0.38
same,Slope of DPBF bleaching (singlet oxygen yield),[3],0.07165
same,Mouse body weight change,[4],no significant changes
same,Tumor volume without light versus PBS and Light groups,"4T1 tumor model; 2 mg/kg i.v., n = 5",no significant difference
same,"Inhibition of tumor cell proliferation with light, in words","4T1 tumor model; SC + light, 2 mg/kg i.v., 671 nm laser 36 J/cm^2, tumor weight, n = 5",not significantly inhibited
"N=C(N)NCCC[C@@H]1NC(=O)[C@H](CCCCNC(=O)CCc2ccc(O[Si]3(Oc4ccc(CCC(=O)O)cc4)n4c5c6ccccc6c4N=C4N=C(N=c6c7ccccc7c(n63)=NC3=NC(=N5)c5ccccc53)c3ccccc34)cc2)NC(=O)[C@@H](Cc2ccc(O)cc2)NC(=O)[C@H](CC(=O)O)NC(=O)CNC1=O (stereo partly shown) [RSP, cRGDyK modified targeting silicon phthalocyanine]",Absorbance at maximum absorption wavelength remaining after irradiation (photostability),[5],about 80%
same,Increase of apoptotic rate compared with SC,4T1 cells [6],9.73%
same,plasma half-life (t1/2α),,45 min
same,Dark toxicity: cell viability without light,4T1 cells [1],did no significantly decreased
same,Killing effect upon exposure to light compared with SC,"4T1 cells [1]; λ > 610 nm, 48 J/cm^2, 0 to 2 μM",lower killing effect
same,Lysosomal colocalization index (Pearson co-localization coefficient),4T1 cells [2],0.78
same,Decrease of singlet oxygen yield relative to SC,[3],10%
same,Slope of DPBF bleaching (singlet oxygen yield),[3],0.06481
same,"Fluorescence signal of excised tumor, relative to SC (semiquantitative)","4T1 tumor; organs and tumors dissected 24 h after injection, 2 mg/kg, n = 3",four folds higher than that of SC
same,"Fluorescence intensity in orthotopic mouse tumors, folds of control","4T1 tumor; orthotopic mouse tumors, as worded in the introduction",4 folds
same,Onset of tumor accumulation after injection,4T1 tumor; [9],≤ 0.5 h
same,Time of peak tumor fluorescence intensity after injection,4T1 tumor; [9],6 h
same,"Fluorescence intensity of tumor site in vivo, folds of SC","4T1 tumor; subcutaneous tumor model, 2 mg/kg, 24 h after injection, n = 3",2.5 folds
same,"H&E pathology of heart, liver, spleen, lung and kidney","[4]; after treatment, RSP injection and laser irradiation",no obvious pathological phenomena
same,Mouse body weight change,[4],no significant changes
same,Tumor volume without light versus PBS and Light groups,"4T1 tumor model; 2 mg/kg i.v., n = 5",no significant difference
same,Apoptosis in tumor tissue (TUNEL) relative to SCL group,4T1 tumor model; [10],twice that of SCL group
same,Ki67 proliferation signal as % of PBS control group,4T1 tumor model; [10],10%
same,Ki67 proliferation signal as fraction of SCL group,4T1 tumor model; [10],1/4
same,Elimination half-time (t1/2β),"[7]; healthy male Balb/c mice, 2 mg/kg tail vein, plasma fluorescence (FOBI)",463.02 min
same,Fluorescence of main organs 120 h after injection,"[7]; mice, 2 mg/kg intravenous, 120 h, n = 3",no obvious fluorescent signal can be detected
same,Fraction metabolized in 48 h,"[7]; mice, 2 mg/kg intravenous, fluorescence of main organs, n = 3",more than 90%
same,Solubility in aqueous solutions with Cremophor EL,[8]; aqueous solutions with 1 % Cremophor EL (CEL),good solubility
same,Aggregation state from absorption spectra,"[8]; physiological saline containing 1% CEL and DMEM medium containing 0.05% CEL, compared with DMF",remained monomer
same,Solubility in pure water,[8]; pure water,limited solubility
